In ChEMBL document CHEMBL4400510, “Synthesis and antitubercular evaluation of reduced lipophilic imidazo[1,2-a]pyridine-3-carboxamide derivatives” (Eur J Med Chem, 2019):

What was measured:
[1] = system: Mycobacterium tuberculosis; experiment: Antitubercular activity against multi drug resistant Mycobacterium tuberculosis 16995 after 7 days by MABA method; format: functional; conditions: Mycobacterium tuberculosis, 16995, 168 h
[2] = Selectivity index, ratio of CC50 for African green monkey Vero cells to MIC>90 multi drug resistant Mycobacterium tuberculosis 16995; format: toxicity; conditions: read-out: Selectivity Index
[3] = system: Mycobacterium tuberculosis; experiment: Antitubercular activity against multi drug resistant Mycobacterium tuberculosis 16833 after 7 days by MABA method; format: functional; conditions: Mycobacterium tuberculosis, 16833, 168 h

| SMILES | MIC90 [1] [µM] | selectivity ratio [2] | MIC90 [3] [µM] |
| --- | --- | --- | --- |
| CCc1nc2ccc(Cl)cn2c1C(=O)NCc1ccc(N2CC3CN(Cc4ccc(OC(F)(F)F)cc4)CC3C2)cc1 (configuration not stated) | < 0.035 | > 586 | < 0.035 |
| CCc1nc2ccc(Cl)cn2c1C(=O)NCc1ccc(N2CCN(Cc3ccc(OC(F)(F)F)cc3)CC2)cc1 | < 0.035 | – | < 0.035 |
| NNC(=O)c1ccncc1 [ISONIAZID] | > 40 | – | > 40 |
| CCc1nc2ccc(Cl)cn2c1C(=O)NCc1ccc(N2CCC(c3ccc(OC(F)(F)F)cc3)CC2)cc1 [TELACEBEC] | < 0.035 | > 1000 | < 0.035 |
| CCc1nc2ccc(Cl)cn2c1C(=O)NCc1ccc(N2CC3CCC2CN3CC2CCCCC2)cc1 (configuration not stated) | < 0.035 | – | < 0.035 |
| CCc1nc2ccc(Cl)cn2c1C(=O)NCc1ccc(N2CCN(CC3CCCCC3)CC2)cc1 | < 0.035 | > 1000 | < 0.035 |
| CCc1nc2ccc(Cl)cn2c1C(=O)NCc1ccc(N2CC3CN(c4ccc(OC(F)(F)F)cc4)CC3C2)cc1 (configuration not stated) | < 0.035 | – | < 0.035 |
| O=c1nc(N2CCN(CC3CCCCC3)CC2)sc2c([N+](=O)[O-])cc(C(F)(F)F)cc12 [MACOZINONE] | < 0.035 | – | < 0.035 |
| CO[C@H]1/C=C/O[C@@]2(C)Oc3c(C)c(O)c4c(O)c(c(/C=N/N5CCN(C)CC5)c(O)c4c3C2=O)NC(=O)/C(C)=C\C=C\[C@H](C)[C@H](O)[C@@H](C)[C@@H](O)[C@@H](C)[C@H](OC(C)=O)[C@@H]1C [RIFAMPIN] | > 40 | – | > 40 |
| CCc1nc2ccc(Cl)cn2c1C(=O)NCc1ccc(N2CC3CN(CC4CCCCC4)CC3C2)cc1 (configuration not stated) | < 0.035 | > 1000 | < 0.035 |
| CCc1nc2ccc(Cl)cn2c1C(=O)NCc1ccc(N2CCC3(CC2)CCN(c2ccc(OC(F)(F)F)cc2)CC3)cc1 | < 0.035 | > 1000 | < 0.035 |
